Measured values as given in patent US12178205B2, “Systems and methods for storing and preserving implantable devices” (Rutgers, The State University of New Jersey, priority 2016, dated 2024).

Test system: Staphylococcus aureus (ATCC 6538)
Experiment: Antimicrobial effectiveness of zinc chloride on Staphylococcus aureus suspension (exposure, neutralization, assay for survivors)
Assay type: cell-based
Conditions: for CFU/mL of Survivors / Log10 Survivors: 37±1° C.; for Number of Survivors: duplicate plate counts; for Percent Reduction: vs test population control 4.68 × 10^5 CFU/mL; for Log10 Reduction: vs test population control Log10 5.67
Method: (§1) A suspension of test organism Staphylococcus aureus (ATCC 6538) was obtained by adding colonies on tryptic soy agar and 5% Sheep Blood (BAP) with incubation parameters of 35° C.-37° C., aerobic in 0.85% saline to match a 3.0 McFarland standard. The suspension was exposed to a test substance of zinc chloride at specified concentrations of 0.1%, 0.3%, and 0.5% from a 1% stock solution at specified exposure times of 10 minutes, 2 hours, 6 hours, and 24 hours at a temperature of 37±1° C. (37.2° C.). Latheen broth and 1% sodium bicarbonate (9.9 mL) were used as a neutralizer. After exposure, an aliquot of the suspension was transferred to the neutralizer and was assayed for survivors.
as §1

[1] = exposure 10 minutes, dilution (volume plated) 10^0 (0.100 mL)
[2] = exposure 10 minutes, dilution (volume plated) 10^0 (1.00 mL)

| Structure (SMILES) | CFU/mL of Survivors (exposure 10 minutes) | Log10 Survivors (exposure 10 minutes) | Number of Survivors [1] | Number of Survivors [2] | Number of Survivors (exposure 10 minutes, dilution (volume plated) 10^1 (0.100 mL)) | Percent Reduction (exposure 10 minutes) | Log10 Reduction (exposure 10 minutes) | CFU/mL of Survivors (exposure 2 hours) | Log10 Survivors (exposure 2 hours) | Percent Reduction (exposure 2 hours) | Log10 Reduction (exposure 2 hours) | CFU/mL of Survivors (exposure 6 hours) | Log10 Survivors (exposure 6 hours) | Percent Reduction (exposure 6 hours) | Log10 Reduction (exposure 6 hours) | CFU/mL of Survivors (exposure 24 hours) | Log10 Survivors (exposure 24 hours) | Percent Reduction (exposure 24 hours) | Log10 Reduction (exposure 24 hours) |
| --- | --- | --- | --- | --- | --- | --- | --- | --- | --- | --- | --- | --- | --- | --- | --- | --- | --- | --- | --- |
| [Cl-].[Cl-].[Zn+2] [0.1% Zinc Chloride, zinc chloride] | 6.8 × 10^5 CFU/mL | 5.83 | T, T | T, T | T, T | None | None | 4.9 × 10^2 CFU/mL | 2.69 | >99.8% | 2.98 | 2.3 × 10^2 CFU/mL | 2.36 | >99.9% | 3.31 | 4 × 10^1 CFU/mL | 1.60 | 99.99% | 4.07 |
| [Cl-].[Cl-].[Zn+2] [0.3% Zinc Chloride, zinc chloride] | 5.9 × 10^4 CFU/mL | 4.77 | T, T | T, T | – | 87.4% | 0.90 | 1 × 10^1 CFU/mL | 1.00 | >99.99% | 4.67 | <5 CFU/mL | <0.70 | >99.99% | >4.97 | <5 CFU/mL | <0.70 | >99.99% | >4.97 |
| [Cl-].[Cl-].[Zn+2] [0.5% Zinc Chloride, zinc chloride] | 2.9 × 10^4 CFU/mL | 4.46 | T, T | T, T | – | 93.8% | 1.21 | 1 × 10^1 CFU/mL | 1.00 | >99.99% | 4.67 | <5 CFU/mL | <0.70 | >99.99% | >4.97 | <5 CFU/mL | <0.70 | >99.99% | >4.97 |
